From patent US12612424B2, “HPK1 inhibitors and uses thereof” (Regor Pharmaceuticals, Inc., priority 2019, dated 2026)
Where two headings read alike, the source gives them in different places.

Legend:
HPK1 = HPK1 (Homo sapiens, UniProt Q92918); assay: HPK1 biochemical assay (ADP-GLO Kinase Assay)
Description: IC50 values of any compounds can be determined accordingly over a range of inhibitor concentrations. In addition, the inhibitory effect of the compounds can also be assess using a biological assay, to determine the effect of the compounds on cytokine secretion by T cells following TCR and CD28 stimulation.
Biology Example 1 HPK1 Biochemical Assay
This example used the ADP-GLO™ Kinase Assay to measure the effect of potential HPK1 inhibitor compounds on HPK1 kinase activity.
The ADP-GLO™ Kinase Assay (Promega Corp., Madison, WI) measures ADP formed from a kinase reaction. According to the manufacture, the ADP formed in a kinase assay is first converted into ATP, which is then used to generate light in a luciferase reaction. The luminescence generated correlates with kinase activity. An exemplary experimental setting is described below, though minor adjustments can be made in individual assays.
Serial 3-fold dilution of compounds from 10 μM (top concentration) to 0.508 nM (lowest concentration). Positive control is 10 μM Reference+enzyme+substrate. Negative control is 1% DMSO+enzyme+substrate.
• 1. Buffer Preparation • 40 mM Tris pH7.5; 20 mM MgCl2, 0.1 mg/ml BSA, 50 μM DTT Buffer Stock
Add 20 mL 1M Tris and 10 mL 1M MgCl2 to 470 mL ddH2O to get buffer stock, and stock at RT. • 2. Preparing Fresh 1* Assay Buffer
• 3. Compounds Preparation • 1) The compounds were diluted to 1 mM, by mixing 10 μL of 10 mM respective compound stocks with 90 μL of DMSO. • 2) The compounds were then diluted 3-fold for 10 doses (5 μL to 10 μL dilution) by BRAVO. The top compound conc. was 1 mM (100×), DMSO Conc. was 100%. • 3) Transfer 100 nL of each diluted compound sample to 384-well plate (Corning-4512) by ECHO. • 4) Centrifuge the plate at 1,500 rpm for 1 minute. • 4. Preparation of 2×ATP-MBP Mixture: • 20 μM ATP, 0.2 μg/μL MBP in Kinase Buffer (final concentration: 10 μM ATP, 0.1 MBP)
• 5. Preparation of 2×HPK1 working solution with assay buffer. • HPK1 final concentration was 0.6 ng/μL. […] Incubate at 25° C. for 40 min. • 11. Record luminescence signal on an Envision plate reader (384-CTG). 5. Data Analysis
The percent (%) inhibition at each concentration of compound is calculated based on and relative to the signal in the High and Low control wells contained within each assay plate. […] The concentrations and % inhibition values for tested compounds were plotted and the concentration of compound required for 50% inhibition (IC50) was determined with a Three-parameter logistic dose response equation. The endpoint value (IC50) for the reference peptide/compound was evaluated in each experiment as a quality control measure. If the endpoint value was within 3-fold of the expected value, then the experiment was deemed acceptable.

JAK3 = molecular target: T1, JAK3 (Homo sapiens, UniProt P52333); assay: JAK3 biochemical assay (ADP-GLO Kinase Assay); conditions: for JAKs/HPK1 IC50 Ratio, B* / JAKs/HPK1 IC50 Ratio, N*: ratio of JAK3 IC50 to HPK1 IC50; for JAKs/HPK1 IC50 Ratio, B*: first testing facility; for JAKs/HPK1 IC50 Ratio, N*: second testing facility
T1 construct: purchased Thermo fisher PV3855
Procedure: Biology Example 4 JAK3 Biochemical Assay
This example used the ADP-GLO™ Kinase Assay to measure the effect of potential HPK1 inhibitor compounds on JAK3 kinase activity. An exemplary experimental setting is described below, though minor adjustments can be made in individual assays.
3. Procedures • 1. Prepare JAK3 kinase buffer • Freshly adding DTT and BSA into Buffer (Final Conc.: 40 mM Tris pH7.5; 20 mM MgCl2, 0.1 mg/ml BSA, 50 μM DTT).
• 2. Compounds Preparation • For tested compounds: compounds were diluted to 1 mM, by mixing 5 μL of 10 mM compound stocks to 45 μL DMSO. The compounds solutions were then serially diluted 3-fold for 10 doses. The top compound concentration was 1 mM (100×), DMSO concentration was 100%. • 50 nL of each of 10 doses of diluted compound were added to 384-well assay plate (Corning #4512) by ECHO. • For positive control, 50 nL of 1 mM reference compound were added to 384-well assay plate (Corning #4512) by ECHO. • For negative control: 50 nL of DMSO was transferred into 384-well assay plate as a negative control. • The assay plate was centrifuged at 1,500 rpm for 1 minute. • 3. Compounds were Transferred by ECHO Following the Layout Below: • Reference and test compounds 1-15: serial 3-fold dilution from 10 μM to 0.508 nM (10 doses); negative control is 0.78 ng JAK3, 4 μM ATP & 0.2 μg/μL poly, 1% DMSO; positive control is the top dose of the reference compound, 0.78 ng JAK3, 0.2 μg/μL Poly(E4Y1), 4 μMATP, 1% DMSO. • 4. Add 2.5 μL/well of 2×JAK3 working solution using pipette (Thermo, 30 μL multi-channel), Centrifuge at 1,500 rpm for 1 minute. • 5. Add 2.5 μL/well of 2×ATP-Poly(E4Y1) working mixture using pipette (Thermo, 30 μL multi-channel), Centrifuge at 1,500 rpm for 1 minute. • 6. Incubate the assay plate at 25° C. for 60 min. • 7. Add 5 μL/well ADP-GLO™ Reagent by BRAVO to stop the kinase reaction and deplete the unconsumed ATP after 1 hour. Centrifuge at 1,500 rpm for 1 minute. Incubate at 25° C. for 40 min. • 8. Add 10 uL of Kinase Detection Reagent by BRAVO to convert ADP to ATP. Centrifuge at 1,500 rpm for 1 minute. Incubate at 25° C. for 40 min. • 9. Record luminescence signal on an Envision plate reader (384-USL). • 10. Process data using XL-fit. Inhibition %=[1-(test well−Negative control)/(positive control−Negative control)]*100%. 5. Data Analysis
The percent (%) inhibition at each concentration of compound is calculated based on and relative to the signal in the Negative and Positive control wells contained within each assay plate. The Negative control wells served as 0% inhibition, and the Positive control wells served as 100% inhibition. The concentrations and % inhibition values for tested compounds are plotted and the concentration of compound required for 50% inhibition (IC50) is determined with a Three-parameter logistic dose response equation. The endpoint value (IC50) for the reference peptide/compound is evaluated in each experiment as a quality control measure. If the endpoint value was within 3-fold of the expected value then the experiment was deemed acceptable.

[1] = B*: testing performed in a first testing facility, read-out: HPK1 IC50 (nM) Relative, B*
[2] = B*: testing performed in a first testing facility, read-out: JAK3 IC50 (nM) Relative, B*
[3] = N*: testing performed in a second testing facility, read-out: HPK1 IC50 (nM) Relative, N*
[4] = N*: testing performed in a second testing facility, read-out: JAK3 IC50 (nM) Relative, N*

T1 sequence (P52333 781-1124 limits assumed): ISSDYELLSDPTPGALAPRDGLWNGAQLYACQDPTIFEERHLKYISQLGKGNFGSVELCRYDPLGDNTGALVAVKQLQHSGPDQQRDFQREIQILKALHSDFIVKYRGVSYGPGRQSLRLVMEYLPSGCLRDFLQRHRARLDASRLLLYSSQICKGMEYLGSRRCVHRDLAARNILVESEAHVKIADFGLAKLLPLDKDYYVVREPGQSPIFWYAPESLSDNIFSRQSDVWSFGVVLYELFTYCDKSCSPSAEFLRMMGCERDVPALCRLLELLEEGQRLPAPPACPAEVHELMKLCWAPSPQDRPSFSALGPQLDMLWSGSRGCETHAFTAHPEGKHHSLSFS
Sequence of HPK1 (Q92918 whole entry): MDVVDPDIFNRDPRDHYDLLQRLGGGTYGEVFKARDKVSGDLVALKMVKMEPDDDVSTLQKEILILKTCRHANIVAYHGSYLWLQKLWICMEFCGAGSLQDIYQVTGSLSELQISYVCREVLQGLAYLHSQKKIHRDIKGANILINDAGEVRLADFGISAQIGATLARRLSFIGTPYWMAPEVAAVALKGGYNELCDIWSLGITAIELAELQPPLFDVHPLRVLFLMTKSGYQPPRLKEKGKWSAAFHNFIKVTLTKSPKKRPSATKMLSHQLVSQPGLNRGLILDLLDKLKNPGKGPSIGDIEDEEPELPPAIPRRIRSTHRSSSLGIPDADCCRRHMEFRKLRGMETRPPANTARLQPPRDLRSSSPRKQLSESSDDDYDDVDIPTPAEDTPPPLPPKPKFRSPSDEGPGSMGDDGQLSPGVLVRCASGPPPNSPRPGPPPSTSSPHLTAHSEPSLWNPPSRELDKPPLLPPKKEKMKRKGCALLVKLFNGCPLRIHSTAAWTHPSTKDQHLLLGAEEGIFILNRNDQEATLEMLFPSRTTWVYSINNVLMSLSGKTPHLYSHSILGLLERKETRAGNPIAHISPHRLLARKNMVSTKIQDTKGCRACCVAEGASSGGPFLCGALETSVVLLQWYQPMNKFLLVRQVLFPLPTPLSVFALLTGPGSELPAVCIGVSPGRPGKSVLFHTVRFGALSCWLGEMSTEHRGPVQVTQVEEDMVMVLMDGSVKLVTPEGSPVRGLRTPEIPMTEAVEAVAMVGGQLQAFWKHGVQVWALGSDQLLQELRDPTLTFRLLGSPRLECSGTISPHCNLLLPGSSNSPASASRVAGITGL

Row | Compound | IC50 (HPK1; [1]) | IC50 (JAK3; [2]) | JAKs/HPK1 IC50 Ratio, B* (JAK3) | IC50 (HPK1; [3]) | IC50 (JAK3; [4]) | JAKs/HPK1 IC50 Ratio, N* (JAK3)
1 | COc1cc2c(cc1Nc1ncc3ccn(-c4cccnc4C)c3n1)CN(C)CC2 [Example 41, 6-Methoxy-2-methyl-N-(7-(2-methylpyridin-3-yl)-7H-pyrrolo[2,3-d]pyrimidin-2-yl)-1,2,3,4-tetrahydroisoquinolin-7-amine] | ≤ 100 nM | 100 to 500 nM | 30 | – | – | –
2 | COc1cc2c(cc1Nc1ncc3ncn(-c4ccccc4)c3n1)CN(C)CC2 [Example 43, 6-Methoxy-2-methyl-N-(9-phenyl-9H-purin-2-yl)-1,2,3,4-tetrahydroisoquinolin-7-amine] | > 1000 nM | – | – | > 1000 nM | > 1000 nM | >10
3 | COc1cc2c(cc1Nc1ncc3ncn(-c4ccccc4C(=O)N(C)C)c3n1)CN(C)CC2 [Example 44, 2-(2-((6-Methoxy-2-methyl-1,2,3,4-tetrahydroisoquinolin-7-yl)amino)-9H-purin-9-yl)-N,N-dimethylbenzamide] | > 1000 nM | – | – | > 1000 nM | > 1000 nM | >10
4 | COc1cc2c(cc1Nc1ncc3c(n1)N(c1ccccc1P(C)(C)=O)CCO3)CN(C)CC2 [Example 47, (2-(2-((6-Methoxy-2-methyl-1,2,3,4-tetrahydroisoquinolin-7-yl)amino)-6H-pyrimido[5,4-b][1,4]oxazin-8(7H)-yl)phenyl)dimethylphosphine oxide] | 100 to 500 nM | > 1000 nM | >22 | – | – | –
5 | COc1cc2c(cc1Nc1ncc(Cl)c(-c3cncc4ccccc34)n1)CN(C)CC2 [Example 48, N-(5-chloro-4-(isoquinolin-4-yl)pyrimidin-2-yl)-6-methoxy-2-methyl-1,2,3,4-tetrahydroisoquinolin-7-amine] | ≤ 100 nM | > 1000 nM | >179 | – | – | –
6 | CCc1c[nH]c2ncc(-c3ccc(C)c(P(C)(C)=O)c3)cc12 [Example 50, (5-(3-Ethyl-1H-pyrrolo[2,3-b]pyridin-5-yl)-2-methylphenyl)dimethylphosphine oxide] | ≤ 100 nM | > 1000 nM | 163 | ≤ 100 nM | > 1000 nM | 101
7 | CCc1c[nH]c2ncc(-c3ccc(F)c(P(C)(C)=O)c3)cc12 [Example 51, (5-(3-Ethyl-1H-pyrrolo[2,3-b]pyridin-5-yl)-2-fluorophenyl)dimethylphosphine oxide] | ≤ 100 nM | > 1000 nM | 51 | – | – | –
8 | CCc1c[nH]c2ncc(-c3ccc(O)c(P(C)(C)=O)c3)cc12 [Example 55, (5-(3-Ethyl-1H-pyrrolo[2,3-b]pyridin-5-yl)-2-hydroxyphenyl)dimethylphosphine oxide] | ≤ 100 nM | 100 to 500 nM | 20 | – | – | –
9 | CCc1c[nH]c2ncc(-c3cc(N)cc(P(C)(C)=O)c3)cc12 [Example 57, (3-Amino-5-(3-ethyl-1H-pyrrolo[2,3-b]pyridin-5-yl)phenyl)dimethylphosphine oxide] | ≤ 100 nM | 500 to 1000 nM | 22 | – | – | –
10 | CCc1c[nH]c2ncc(-c3ccc(NC(C)=O)c(P(C)(C)=O)c3)cc12 [Example 58, N-(2-(dimethylphosphoryl)-4-(3-ethyl-1H-pyrrolo[2,3-b]pyridin-5-yl)phenyl)acetamide] | ≤ 100 nM | 100 to 500 nM | 4 | – | – | –
11 | CCc1c[nH]c2ncc(-c3ccc(F)c(P(C)(C)=O)c3N)cc12 [Example 60, (2-Amino-3-(3-ethyl-1H-pyrrolo[2,3-b]pyridin-5-yl)-6-fluorophenyl)dimethylphosphine oxide] | ≤ 100 nM | > 1000 nM | 25 | – | – | –
12 | CCc1c[nH]c2ncc(-c3ccc(C(F)F)c(P(C)(C)=O)c3)cc12 [Example 61, (2-(Difluoromethyl)-5-(3-ethyl-1H-pyrrolo[2,3-b]pyridin-5-yl)phenyl)dimethylphosphine oxide] | 100 to 500 nM | > 1000 nM | 15 | – | – | –
13 | CCc1c[nH]c2ncc(-c3ccc(C)c(P(C)(C)=O)c3F)cc12 [Example 62, (3-(3-Ethyl-1H-pyrrolo[2,3-b]pyridin-5-yl)-2-fluoro-6-methylphenyl)dimethylphosphine oxide] | ≤ 100 nM | > 1000 nM | 54 | – | – | –
14 | CCc1c[nH]c2ncc(-c3ccc(-c4ncco4)c(P(C)(C)=O)c3)cc12 [Example 63, (5-(3-Ethyl-1H-pyrrolo[2,3-b]pyridin-5-yl)-2-(oxazol-2-yl)phenyl)dimethylphosphine oxide] | 100 to 500 nM | > 1000 nM | 19 | – | – | –
15 | CCc1c[nH]c2ncc(-c3ccc(C)c(P(C)(C)=O)n3)cc12 [Example 64, (6-(3-Ethyl-1H-pyrrolo[2,3-b]pyridin-5-yl)-3-methylpyridin-2-yl)dimethylphosphine oxide] | ≤ 100 nM | > 1000 nM | 44 | – | – | –
16 | CCc1c[nH]c2ncc(-c3ccc(CN(C)C)c(P(C)(C)=O)c3)cc12 [Example 65, (2-((Dimethylamino)methyl)-5-(3-ethyl-1H-pyrrolo[2,3-b]pyridin-5-yl)phenyl)dimethylphosphine oxide] | 500 to 1000 nM | > 1000 nM | >10 | – | – | –
17 | CCc1c[nH]c2ncc(-c3ccc(N4CCCC4=O)c(P(C)(C)=O)c3)cc12 [Example 66, 1-(2-(Dimethylphosphoryl)-4-(3-ethyl-1H-pyrrolo[2,3-b]pyridin-5-yl)phenyl)pyrrolidin-2-one] | 100 to 500 nM | > 1000 nM | 3 | – | – | –
